# US5514648A, “Fungicidally active compounds” (priority 1990, dated 1996)
# Where a SMILES comes first, the peptide text is derived from it. [ ]: non-standard residue; d: D form. NMeI = CC[C@H](C)[C@H](NC)C(=O)O; NMeD = CN[C@@H](CC(=O)O)C(=O)O; NMeV = CN[C@H](C(=O)O)C(C)C; Pip = O=C(O)[C@@H]1CCCCN1; dLac = C[C@@H](O)C(=O)O
# What was measured:
# Toxicology IC50, ATP = conditions: estimated
# Method: Based on these tests the IC50 values for BK 202 were estimated as: ATP >10 μg/ml;
# A. fumigatus = test: Fungicidal activity, mycelial growth on potato dextrose agar; assay type: cell-based, Aspergillus fumigatus; conditions: in as low concentrations as 0.0016 μg/ml, 3 to 6 days
# Method: (§1) Experiments were carried out to determine the potency of the compound of formula IV towards various fungi. The active ingredient was dissolved in 60% ethanol and added to cooled potato dextrose agar to give final concentrations of 25, 5, 1, 0.2, 0.04 and 0.0016 μg a.i. per ml agar, respectively. Control dishes contained no active ingredient.
# (§2) 10 ml Agar was poured into 9 cm petri dishes and each concentration was inoculated with actively growing mycelium of the fungal isolates tested for. The dishes were incubated at the optimum temperature for growth of the isolates for 3 to 6 days after which time the growth was measured in mm and compared to the controls.
# (§3) The test isolates covered a broad range of fungi within the Oomycetes, the Ascomycetes, the Basidiornycetes, the Deuterornycetes, and the Zygomycetes.
# P. digitatum = test: as above; assay type: cell-based, Penicillium digitatum; conditions: in as low concentrations as 0.0016 μg/ml, 3 to 6 days
# Method: as §1, §2, §3
# P. teres = test: as above; assay type: cell-based, Pyrenophora teres; conditions: in as low concentrations as 0.0016 μg/ml, 3 to 6 days
# Method: as §1, §2, §3
# P. sorghina = test: as above; assay type: cell-based, Phoma sorghina; conditions: 25 to 0.0016 μg a.i. per ml agar, 3 to 6 days
# Method: as §1, §2, §3
# Oornycetous species = test: as above; assay type: cell-based, Oomycetes; conditions: 25 to 0.0016 μg a.i. per ml agar
# Method: as §1, §2, §3
# Botrytis cinerea [1] = test: Activity against Botrytis cinerea on apples (Golden Delicious); assay type: in vivo; conditions: suspension 9.8 μg active ingredient per ml; inoculated the following day; one week, 18°-20° C.; untreated fruits 100% infected
# Method: Artificially injured apples were sprayed with a suspension containing 9.8 μg active ingredient per ml.On the following day the treated fruits were inoculated with a spore suspension of the fungus containing 1×10^5 /ml, and incubated for a week at high air humidity and 18°-20° C. At the evaluation the infected places of injury were counted and from that the fungicidal effect of the test substance evaluated. […] The untreated fruits were 100% infected with Botrytis cinerea.
# Botrytis cinerea [2] = test: Field trial, Botrytis cinerea on strawberries (Senga-Sengana); assay type: in vivo; conditions: 100, 300, and 900 g a.i./ha, four sprayings
# From the text: Field trial performed in Funen, Denmark, in accordance with the EPPO guidelines (Guideline for the Biological Evaluation of Fungicities. Botrytis cinerea on Strawberries). The plot size was 20 m^2 and three replicates were used. The active compound was used in a test formulation containing approximately 10% active ingredient (a.i.). Three concentrations of active compound were applied: 100, 300, and 900 g a.i./ha. The spraying volume was 1200 l/ha. The strawberries were sprayed at the following growth stages: T1, onset of flowering; T2 : 10% flowering; T3, 50% flowering; and T4, 80% flowering. The commercial fungicide ROVRAL® was used as standard reference. The assessment was performed by counting and weighing healthy and infected strawberries, respectively.
# Botrytis cinerea [3] = test: Field trial, Botrytis cinerea on grapes (Ugni Blanc); assay type: in vivo; conditions: 100, 300, and 900 g a.i./ha, three sprayings
# From the text: Field trial performed in Bordeaux, France, in accordance with CEB Method No. 37. A plot consisted of 15 plants in one row and six replicates were used. The active compound was used in a test formulation containing approximately 10% active ingredient (a.i.). Three concentrations of active compound were applied: 100, 300, and 900 g a.i./ha. The water volume was 300 l/ha. The grapes were sprayed at the following growth stages: T1, end of formation of bunches of grapes; T2, beginning of ripening of grapes; and T3, 3 to 4 weeks before harvest. The commercial fungicides […]® and BASULTRA® were used as standard references. The assessment was performed by estimating the intensity and frequency of the Botrytis cinerea attack after the appearance of the disease.
# Botrytis cinerea [4] = test: Green house trial, Botrytis cinerea on tomatoes (Matador); assay type: in vivo; conditions: at all the tested concentrations 0.01%, 0.03%, and 0.09% a.i.
# From the text: Green house trial performed in Lyngby, Denmark.
# A plot consisted of 7 plants (approximately 12 weeks old, 1 m high) and three replicates were used. The plants were kept in a plastic "tent" to maintain a high humidity. Before spraying the plants 20 leaves per plant were mechanically injured to improve the attack of Botrytis cinerea. The active compound was used in a test formulation containing approximately 10% active ingredient (a.i.). Three concentrations of active compound were applied: 0.01%, 0.03%, and 0.09% a.i. The water volume was 770 ml/plot.
# The tomatoes were sprayed just after wounding the leaves. 24 hours after fungicide treatment an artificial inoculation was done by spraying spores of B. cinerea suspended in 30% orange juice on the plants.
# The commercial fungicide RONILAN®was used as standard reference.
# The assessment was performed by counting the number of attacks on leaves, stalks, fruits, and flower buds.
compound,measurement,setting,value
"CC[C@H](C)[C@H]1C(=O)NCC(=O)N(C)[C@@H](C(C)C)C(=O)N[C@@H](Cc2ccc(OC)cc2)C(=O)O[C@H](C)C(=O)N2CCCC[C@H]2C(=O)N(C)[C@@H](C(C)C)C(=O)N[C@@H](C(C)C)C(=O)N(C)[C@@H](CC(=O)O)C(=O)N(C)[C@@H](C(C)C)C(=O)N1C [BK 202, cyclo- Pec-MeVal-Val-MeAsp-MeVal-MeIle-Gly-MeVal-TyrOMe-D-Lact!] (cyclo(G[NMeV]Y(Me)[dLac][Pip][NMeV]V[NMeD][NMeV][NMeI]))","IC50, ATP","Toxicology IC50, ATP",> 10 µg/mL
same,inhibition of growth,A. fumigatus,very strong
same,inhibition of growth,P. digitatum,very strong
same,inhibition of growth,P. teres,very strong
same,inhibition of growth,P. sorghina,weaker
same,fungicidal activity,Oornycetous species,practically no activity
same,fungicidal effect on injured apples,Botrytis cinerea [1],prevented the growth of fungus completely
same,"fungicidal effect (degree of infection, FIG. 8) compared to ROVRAL®",Botrytis cinerea [2],superior
same,"fungicidal effect (intensity of infection, FIG. 9) compared to both RONILAN® and BASULTRA®",Botrytis cinerea [3],superior
same,"fungicidal effect (degree of infection, FIG. 10) compared to RONILAN®",Botrytis cinerea [4],superior
